Values joined by “and” are separate entries in the source; they are usually repeats but may differ in a detail not shown here. Equal values may be shown once.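 Where inhibition never reached the appropriate level, the endpoint shown equals the highest concentration tested. Otherwise, values were interpolated linearly from a five-concentration, 48-hour dose response in 96-well plates. The concentration for 50% growth inhibition is given as GI50. TGI: total growth inhibition.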
How the values were obtained:
Experiment in all cases: inhibition of tumour cell growth, NCI panel, 48 h
HL-60(TB) leukemia = system: HL-60(TB) leukemia
UO-31 renal = system: UO-31 renal
HCT-116 colon = system: HCT-116 colon
NCI-H522 lung = system: NCI-H522 lung
NCI-H460 lung = system: NCI-H460 lung
HT29 colon = system: HT29 colon
SF-268 CNS = system: SF-268 CNS
SR leukemia = system: SR leukemia
A498 renal = system: A498 renal
OVCAR-4 ovarian = system: OVCAR-4 ovarian

Compound	TGI (HL-60(TB) leukemia)	GI50 (UO-31 renal) [µM]	TGI (UO-31 renal)	TGI (HCT-116 colon) [µM]	GI50 (NCI-H522 lung)	TGI (NCI-H522 lung)	TGI (NCI-H460 lung)	TGI (HT29 colon) [µM]	GI50 (SF-268 CNS)	TGI (SF-268 CNS)	TGI (SR leukemia)	TGI (A498 renal)	GI50 (OVCAR-4 ovarian) [µM]	TGI (OVCAR-4 ovarian) [µM]	GI50 (HL-60(TB) leukemia)	GI50 (HCT-116 colon) [µM]	GI50 (NCI-H460 lung) [µM]	GI50 (HT29 colon) [µM]	GI50 (SR leukemia) [µM]	GI50 (A498 renal) [µM]
CC(C)=CCC1=C(O)c2ccccc2C(=O)C1=O	> 100 µM	> 100	> 100 µM	> 100	> 100 µM and 19.7 µM and 20.6 µM	> 100 µM	> 100 µM	> 100	> 100 µM and 11.8 µM	> 100 µM	> 100 µM	> 100 µM	11.7	> 100						
C[N+](C)(C)CC(=O)N/N=C(/Cc1cc(=O)oc2cc(O)ccc12)C(=O)Nc1ccc(Cl)cc1	> 100 µM		> 100 µM	> 100		> 100 µM	> 100 µM	> 100		> 100 µM	> 100 µM	> 100 µM		> 100						
COc1cc2c3c(n(C)c(=O)c2cc1OC)-c1cc2c(cc1C3=O)OCO2	> 100 µM		> 100 µM	> 100		34.8 µM	> 100 µM	> 100		> 100 µM	11.8 µM	> 97 µM		> 100						
COC(=O)C1=CN(CC2=CC(=O)C(C)=CC2=O)C=C(C(=O)OC)C1c1ccccc1OC	18.5 µM	16.4	31.2 µM	66	23.7 µM	> 64.6 µM	> 87.7 µM	> 100	18.7 µM	58.6 µM	19.6 µM	> 87.9 µM	22.5	> 67.4	4.74 µM	22.8	33.7	40.9	4.01	31.4
CC12c3ccccc3C(OC=O)(c3ccccc31)C1(C)c3ccccc3C2(OC=O)c2ccccc21	> 100 µM		> 100 µM	> 100		> 100 µM	> 100 µM	> 100		> 100 µM	48.6 µM	> 100 µM		> 100						
COc1ccc(CNc2c3ccccc3nc3ccccc23)cc1F	10.4 µM	1.49	6.15 µM	12.3	2.01 µM	6.45 µM	10.4 µM	10.3	3.76 µM	15.1 µM	9.37 µM	5.99 µM	3.28	12.5	3.37 µM	2.92	3.15	2.58	2.49	1.98
COc1ccc(-c2cc(=O)oc3c4c(ccc23)OCN(Cc2ccc(F)cc2)C4)cc1	57.4 µM	7.26	37.9 µM	27.7	16.6 µM	33.6 µM	30.2 µM	34.9	16.6 µM	34.8 µM	39.9 µM	10.3 µM	17.4	43.2	23.2 µM	13.6	15.9	17.6	13	1.23
NC(=S)N/N=C/c1ncccc1O	3.6 µM and 3.59 µM	1.48	> 33.8 µM and 6.46 µM	> 391	2.44 µM and 1.29 µM	> 42.9 µM and 87 µM	48.5 µM and 25.2 µM	> 1000	2.88 µM and 0.736 µM	29.6 µM and 89.4 µM	28.8 µM and > 148 µM	29.2 µM and 32.4 µM	5.21	> 929	1.27 µM and 0.477 µM	2.86	3.17	2.72	0.585	3.74
Cc1cccc(NC2=C(Cl)C(=O)c3nc(C)ccc3C2=O)c1	5.8 µM	1.29	2.59 µM	1.86	1.81 µM	4.88 µM	3.82 µM	11.9	2.1 µM	6.4 µM	> 100 µM	2.43 µM	1.2	2.45	2.14 µM	0.44	1.64	2.94	1.22	0.235
COc1ccc(/C=C\c2cc(OC)c(OC)c(OC)c2)cc1OCC(=O)O	23.8 µM		> 94.8 µM	31.5		9.01 µM	> 55.3 µM	> 100		> 100 µM	> 100 µM	> 83 µM		> 86.1						
O=[N+]([O-])c1ccccc1N=Nc1c(O)[nH]c2c(Cl)cc(Cl)cc12	> 93 µM		> 100 µM	> 100		> 100 µM	> 100 µM	> 100		> 100 µM	22.6 µM	> 100 µM		> 100						
Cc1cc2c(cc1C)[n+](=O)cc(C(=O)C/C(=N/NC(=S)NN)C(=O)Nc1cccc(C(F)(F)F)c1)n2[O-]	> 100 µM		> 100 µM	> 100		> 100 µM	> 100 µM	> 100		> 100 µM	> 100 µM	> 100 µM		> 100						

Source: PubChem BioAssay (NCI)
